According to patent US20260083698A1, “Synergistic Stimulation of Mucociliary Clearance to Treat Mucus Obstruction in Cystic Fibrosis and Other Muco-Obstructive Disorders” (The Board of Trustees of the Leland Stanford Junior …, priority 2022, published 2026):

Assays:
[1] = tested on: WT ferret tracheal glands; experiment: Optical measurement of glandular mucus secretion rate, WT ferret
From the text: Synergistic glandular mucus secretion in WT pigs, WT ferrets, and CF ferrets. Synergistic increases in MCCV rely partly on increased mucus secretion from submucosal glands. This hypothesis arises from evidence that combinations of [Ca^2+]i-elevating and [cAMP]i-elevating agonists produce synergistically elevated rates of mucus from submucosal glands of humans (22), pigs (24), and ferrets (21). However, in those experiments different specific concentrations of agonists were used. To determine if the same protocols used here produced synergistic increases in secretion from submucosal glands, mucus secretion rates of individual tracheal glands in WT pigs and ferrets and in CF ferrets were measured via time-lapse optical imaging (28) while stimulating them with the same concentrations of agonists and durations of exposure used for MCCV studies. All secretion rates are reported as nanoliters/min/gland. WT Ferrets gave similar results (FIG. 3D-F). […] Data for individual WT control ferrets is shown in FIG. 3E for forskolin first and in FIG. 3F for carbachol first. Optical measurement of glandular mucus secretion rate. Details are in the previous report (28). […] Stored images were analyzed by direct measurement or with ImageJ software (V. 1.50i, https://imagej.nih.gov/ij/, NIH, MD/USA).

WT piglet tracheas = experiment: Mucociliary clearance velocity (MCCV) in ex vivo WT piglet tracheas; design: species or system pig; details: for Averaged MCCV: 10 μM forskolin, 0.3 μM carbachol, last 20 min of single agonist period, last 50 min of synergy period
Procedure: MCCV in tracheas was measured from 2 to 5 days old WT piglets (see “Methods” section for details). […] The 8 piglet tracheas were divided into two groups and tested 4 by applying forskolin first and 4 by applying carbachol first, followed by the combined agonists.
These experiments used forskolin to elevate cAMP.
Pig tissues. Newborn WT piglet tracheas (2-5 days old) were directly obtained at the swine facility of UC Davis or from the laboratory of David Stoltz, University of Iowa, via overnight priority express. Postmortem (<1 h) tracheas from young adult Yorkshire pigs (30-50 kg) and 5-12 months old M. putorius ferrets were from animal facilities at Stanford and Gilroy/CA. All methods using animal tracheae were carried out in accordance with relevant guidelines and regulations of Stanford University and animal protocols were approved (Stanford IACUC protocol#: 10,048). Piglet tracheas were shipped in DMEM cell culture medium, other animal tissues were transported to the laboratory in cold PhysioSol™ solution (Hospira, IL/USA) and then transferred to icecold Krebs Ringer bicarbonate (KRB) buffer gassed with 95% O2 and 5% CO2 and kept at 4° C. until use. The KRB buffer contained (in mM): 115 NaCl, 25 NaHCO3, 2.4 K2HPO4, 0.4 KH2PO4, 1.2 MgCl2, 1.2 CaCl2, 10 glucose, and 1.0 μM indomethacin, adjusted to pH 7.2 and ˜290 mOsm at room temperature.
MCCV measurement. Details are in the previous reports (16,59,60). Briefly, each whole length ferret or piglet trachea, or a CF tracheal trim, was cut open along the mid-dorsal line and mounted mucosal side up onto a Sylgard elastomer platform. […] The prepared trachea was placed into a sealed, humidified chamber bubbled continuously with gas (95%/5%-O2/CO2) with the serosal surface bathed with KRB buffer±drugs. […] Then excess apical solution was drained, and tissue was incubated for an additional 10 min before starting baseline measurements of MCCV. Drugs were added by bath replacement with pre-warmed bath+drug(s). Summary MCCV data are reported as a single number and based on the averaged MCCV during the last 20 min of the treatment period unless stated otherwise.
MCCV (all values are in mm/min) was then measured for 90-120 min and plotted as MCCV vs time and agonist(s) in FIG. 8.
It was hypothesized that the synergistic MCC induced by β-adrenergic and cholinergic agonists involved ENaC inhibition.

WT ferret tracheas = details: WT ferrets, obtained previously (16); cited from earlier work
ferret tracheal mucosa = experiment: Short circuit current (Isc), Ussing chamber, ferret; details: WT ferrets; 30 min single agonist then 30 min combined
From the text: FIG. 4. Combined agonists inhibit sodium absorption and stimulate anion secretion by surface epithelia. (A) Cartoon of two electrogenic, ion transport pathways across airway apical epithelium: anion secretion increases surface fluid, Na+ absorption decreases surface fluid. The two pathways have opposite effects on fluid depth, but additive effects on short circuit current (Isc) because of their opposite valence and transport directions. (B) Raw trace of Isc across pig tracheal epithelium using Chart 4 software. After reaching a stable, unstimulated Isc (here, >2 h post-mounting), 10 μM forskolin, 0.3 μM carbachol, 10 μM benzamil, 20 μM benzopyrimido-pyrrolo-oxazinedione (BPO-27) and 200 μM niflumic acid were sequentially added at times shown. (C, D) Pig tracheal mucosa: averaged Δ Isc plots over time in response to (C) forskolin alone followed by forskolin+carbachol and (D) reversed order of agonist addition. (E & F) Ferret tracheal mucosa: averaged A Isc plots with same protocol as for pigs. Pig traces (C, D) are based on 10-12 experiments with tissues from 6 to 7 pigs. Ferret traces (E, F) are from 7 experiments with tissues from 5 ferrets. […]
(§1) Electrophysiology. […] Total tissue conductance was calculated by applying Ohm's law to the Isc deflection resulting from a 1 mV pulse across the tissues every 20 s during the experiment. […]

pig tracheal mucosa = experiment: Short circuit current (Isc) and conductance, Ussing chamber, pig; details: WT pigs; 30 min single agonist then 30 min combined
From the text: FIG. 4. Combined agonists inhibit sodium absorption and stimulate anion secretion by surface epithelia. (A) Cartoon of two electrogenic, ion transport pathways across airway apical epithelium: anion secretion increases surface fluid, Na+ absorption decreases surface fluid. The two pathways have opposite effects on fluid depth, but additive effects on short circuit current (Isc) because of their opposite valence and transport directions. (B) Raw trace of Isc across pig tracheal epithelium using Chart 4 software. After reaching a stable, unstimulated Isc (here, >2 h post-mounting), 10 μM forskolin, 0.3 μM carbachol, 10 μM benzamil, 20 μM benzopyrimido-pyrrolo-oxazinedione (BPO-27) and 200 μM niflumic acid were sequentially added at times shown. (C, D) Pig tracheal mucosa: averaged Δ Isc plots over time in response to (C) forskolin alone followed by forskolin+carbachol and (D) reversed order of agonist addition. (E & F) Ferret tracheal mucosa: averaged A Isc plots with same protocol as for pigs. Pig traces (C, D) are based on 10-12 experiments with tissues from 6 to 7 pigs. Ferret traces (E, F) are from 7 experiments with tissues from 5 ferrets.
Combined agonists stimulate epithelial surface anion secretion and inhibit Na^+ absorption. The surface epithelia also modify ASL. FIG. 4A is a cartoon of the main ion flows controlling ASL depth: anion-mediated fluid secretion increases, and Na^+-mediated fluid absorption decreases ASL depth. It was hypothesized that the combined agonists increase ASL depth and thus MCCV by stimulating secretion and inhibiting absorption (see also FIG. 6). […] With no counterbalancing absorption ASL depth is predicted to increase (dotted gold line in FIG. 6A) unless MCCV increases.
Inhibiting Na+ absorption would increase net fluid accumulation on the surface. […]
as §1

With `C=C[C@@]1(C)CC(=O)[C@]2(O)[C@@]3(C)[C@@H](O)CCC(C)(C)[C@@H]3[C@H](O)[C@H](OC(C)=O)[C@@]2(C)O1` [forskolin] the “gland mucus secretion rate” value [1] was 0.26±0.07 nanoliters/min/gland and the “Averaged MCCV” value (WT piglet tracheas; WT piglet tracheas) was 2.46±0.68 mm/min.

In the case of `C[N+](C)(C)CCOC(N)=O` [carbachol], the “gland mucus secretion rate” value [1] is given as 0.94±0.28 nanoliters/min/gland, the MCCV (WT ferret tracheas) is given as 8.24±0.82 mm/min and the “ΔIsc, summary plots” value (ferret tracheal mucosa) is given as “decreased directly or after a transient increase”. The “ΔIsc, summary plots” value (pig tracheal mucosa) was “decreased directly or after a transient increase”, the “Averaged MCCV” value (WT piglet tracheas; WT piglet tracheas) was 1.12±0.82 mm/min and the “effect on MCCV” value (WT piglet tracheas; WT piglet tracheas, carbachol or forskolin alone) was “only small increases”. The MCCV (WT piglet tracheas; pig tracheas, 10 μM formoterol in place of forskolin, carbachol) was 1.3±0.8 mm/min.
